One series deals with 4T1 R8. Description: In vivo tumor growth inhibition, 4T1 R8 syngeneic model. Also noted: species or system mouse. Conditions: R8 tumors, BALB/c mice, 7S9 50 mg/kg with paclitaxel 15 mg/kg. As for the experimental part: The mice were housed at the National Health Research Institute (NHRI) Animal Center in accordance with the Institutional Animal Care and Use Committee procedures and guidelines. The 4T1-derived cells, including 4T1, 4T1 R4, and 4T1 R8, used for implantation were harvested during log phase growth and resuspended in phosphate-buffered saline. Each mouse was injected s.c. in the right flank with 5×10^5 cells. After tumor size reached 60-100 mm 3 (D1), mice were divided into groups and received treatment with vehicle or different compounds alone or in combinations. Tumor size, in mm 3, was measured twice per week and calculated from Tumor volume=(w 2×1)/2, where w=width and 1=length in mm of the tumor. The values of tumor size were expressed as mean±SEM.

In series [1] the test system is 4T1 R8 cells. The series can be described thus: Cell viability assay, 4T1 R8 cells. Format: cell-based, mouse. The following applies: with 400 nM paclitaxel, 72 hr. As for the experimental part: (§1) MCF-7, MDA-MB-231, MDA-MB-468, Hs578T, 4T1, and HeLa cell lines stably expressing H2B-mCherry and eGFP-tubulin (kindly provided by Dr. Anthony A. Hyman, Max-Planck-Institute for Molecular Cell Biology and Genetics, Dresden, Germany) were cultured in high-glucose Dulbecco's Modified Eagle Medium (DMEM). SK-BR-3 cells were cultured in McCoy's Modified 5a Medium. Hs578T cells were cultured in high-glucose DMEM supplemented with an additional 0.01 mg/mL bovine insulin. […] All mentioned media were supplemented with 10% fetal bovine serum (Gibco) and 1% Penicillin/Streptomycin (Corning), and cells were incubated at 37° C. in a humidified atmosphere containing 5% CO2. HEK293 cells were cultured in HE300 medium (GMEP incorporated, Japan) and maintained in suspension culture with 125 rpm and 8% CO2.
(§2) The cancer cells were cultured in a 96-well plate at a confluence of 1000-2000 cells/well with indicated drugs for specific days. When the time was up, the culture medium in the plate was aspirated and replaced with a prepared CellTiter-Glo reagent/DMEM mixture (1:1 mix of CellTiter-Glo reagent and serum-supplemented DMEM). After incubation for 10 min, the luminescence (proportional to the number of living cells) was measured with an ELISA plate reader to determine the cell viability.

The subject of another series is 4T1 R4 cells. The series can be described thus: Cell viability assay, 4T1 R4 cells. Format: cell-based, mouse. The following applies: with 400 nM paclitaxel, 72 hr. As for the experimental part: as §1, §2
In another series the test system is 4T1 cells. The series can be described thus: Flow cytometry analysis of cell membrane penetration ability. The following applies: 2 hr of drug treatment. Type of series: cell-based, mouse. As for the experimental part:
To quantify the cell membrane penetration ability of different DHTP analogs, 4T1 cells were collected by trypsin after 2 hr of drug treatment and then transferred into microcentrifuge tubes. 4T1 cells were then resuspended into the FACS buffer (1% FBS, 2 mM EDTA, and 0.05% NaN3 in PBS). After two times of FACS buffer rinsing, these samples were detected by flow cytometry (Cyto FLEX™ FLOW Cytometer). The KO525 (405 nm laser; 525 nm filter) channel was used to detect DHTP and 7S9.

For series [2], the system named is 4T1 R8 cells. Description: Colony formation assay, 4T1 R8 cells. Format: cell-based, mouse. The following applies: 1 μM 7S9 with 400 nM paclitaxel. As for the experimental part:
To assess the long-term survival of breast cancer cell lines following the treatment of KIF2C knockdown or inhibition, the cells trypsinized into single-cell suspension were homogeneously seeded in 6-well cell culture plates at a density of 5000 cells per dish, supplemented with 2× complete medium (50% 4×DMEM, 20% FBS, 2% penicillin-streptomycin, ddH2O, and 2× glutaMAX™), agarose (0.6% for bottom agar layer; 0.3% for top cell layer), ddH2O, and DMEM. After incubation for 24 hr, cells were treated with indicated drugs, such as DMSO, KIF2C inhibitors, or chemotherapy drugs, and then cultured at 37° C. incubator in an atmosphere of humidified air with 5% CO2 for a further 14-30 days. When the cell colonies grew to appropriate sizes, the culture mediums were replaced with PBS for washing. After that, the plates were stained with 10% crystal violet and analyzed using Image J.

Another series has as its target T1, KIF2C and tubulin (Homo sapiens, UniProt Q99661).
T1 construct: KIF2C (216-598 a.a.); made in house; host or cells: E. coli BL21 (DE3), pET-28a (KIF2C); tubulin from porcine brain (Cytoskeleton) or HEK293 cells
Description: KIF2C-tubulin affinity pull-down assay. Type of series: binding. As for the experimental part: The mixture was subjected to KIF2C pull-down with 50 μL of pre-equilibrated Ni-NTA resin. Residual tubulin that remained interacting with KIF2C was resolved by SDS-PAGE followed by Coomassie brilliant blue staining or western blotting.

Data on one compound can be found in patent publication US20250129101A1, “Compound, Pharmaceutical Composition Comprising the Same and Method for Treating Cancer Using the Same” (NATIONAL TSING HUA UNIVERSITY, priority 2023, published 2025).

Each structure is given as a SMILES string.

T1 sequence (Q99661 216-598): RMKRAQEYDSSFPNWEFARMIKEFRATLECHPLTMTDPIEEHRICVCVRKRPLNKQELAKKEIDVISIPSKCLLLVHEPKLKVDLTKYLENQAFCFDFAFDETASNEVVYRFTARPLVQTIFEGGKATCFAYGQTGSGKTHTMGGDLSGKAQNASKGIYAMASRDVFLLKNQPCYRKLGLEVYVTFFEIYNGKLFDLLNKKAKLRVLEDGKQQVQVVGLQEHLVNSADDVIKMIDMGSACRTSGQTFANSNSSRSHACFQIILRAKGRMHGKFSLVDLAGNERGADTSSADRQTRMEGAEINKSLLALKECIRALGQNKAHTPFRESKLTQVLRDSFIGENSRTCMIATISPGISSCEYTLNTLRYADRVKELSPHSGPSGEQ

`CCN1CCN(C(=O)COc2ccc(/C=c3\sc4n(c3=O)C(c3ccc(Cl)cc3)C(C(=O)OC(C)C)=C(C)N=4)cc2)CC1.O=C(O)/C=C\C(=O)O` (stereo not drawn) [7S9 (133), isopropyl (Z)-5-(4-chlorophenyl)-2-(4-(2-(4-ethylpiperazin-1-yl)-2-oxoethoxy)benzylidene)-7-methyl-3-oxo-2,3-dihydro-5H-thiazolo[3,2-a]pyrimidine-6-carboxylate maleate]: the “tumor growth inhibition, combination” value with 4T1 R8 worked out at 66.2%. In addition, the “fold increase of cell sensitivity to 7S9 by paclitaxel” value with 4T1 R8 cells [1] is 8 fold; in the series with 4T1 R4 cells it was 10.5 fold. In addition, the “cell penetration, fluorescence signal at 510 nm emission (in words)” value with 4T1 cells is given as “good cell-penetrating property”. In the series with 4T1 R8 cells [2], the “colony formation, combined treatment (in words)” value was “suppression of colony formation was detected only with combined treatment of 7S9 and paclitaxel”. For the same compound, the “molecular interaction between KIF2C and tubulin (in words)” value at KIF2C and tubulin is “increased by 7S9 in a dose-dependent manner”.
